pIC50: −log10 of the molar value.
Columns and labels:
[1] = target: T1, FLT3-D835Y (Homo sapiens, UniProt P36888, D835Y); assay: FLT3-D835Y recombinant enzyme kinase assay (AlphaScreen); format: biochemical; conditions: 8 pt, GMean
T1 construct: purchased Invitrogen PV3967
T1 sequence (P36888 27-993 D835Y): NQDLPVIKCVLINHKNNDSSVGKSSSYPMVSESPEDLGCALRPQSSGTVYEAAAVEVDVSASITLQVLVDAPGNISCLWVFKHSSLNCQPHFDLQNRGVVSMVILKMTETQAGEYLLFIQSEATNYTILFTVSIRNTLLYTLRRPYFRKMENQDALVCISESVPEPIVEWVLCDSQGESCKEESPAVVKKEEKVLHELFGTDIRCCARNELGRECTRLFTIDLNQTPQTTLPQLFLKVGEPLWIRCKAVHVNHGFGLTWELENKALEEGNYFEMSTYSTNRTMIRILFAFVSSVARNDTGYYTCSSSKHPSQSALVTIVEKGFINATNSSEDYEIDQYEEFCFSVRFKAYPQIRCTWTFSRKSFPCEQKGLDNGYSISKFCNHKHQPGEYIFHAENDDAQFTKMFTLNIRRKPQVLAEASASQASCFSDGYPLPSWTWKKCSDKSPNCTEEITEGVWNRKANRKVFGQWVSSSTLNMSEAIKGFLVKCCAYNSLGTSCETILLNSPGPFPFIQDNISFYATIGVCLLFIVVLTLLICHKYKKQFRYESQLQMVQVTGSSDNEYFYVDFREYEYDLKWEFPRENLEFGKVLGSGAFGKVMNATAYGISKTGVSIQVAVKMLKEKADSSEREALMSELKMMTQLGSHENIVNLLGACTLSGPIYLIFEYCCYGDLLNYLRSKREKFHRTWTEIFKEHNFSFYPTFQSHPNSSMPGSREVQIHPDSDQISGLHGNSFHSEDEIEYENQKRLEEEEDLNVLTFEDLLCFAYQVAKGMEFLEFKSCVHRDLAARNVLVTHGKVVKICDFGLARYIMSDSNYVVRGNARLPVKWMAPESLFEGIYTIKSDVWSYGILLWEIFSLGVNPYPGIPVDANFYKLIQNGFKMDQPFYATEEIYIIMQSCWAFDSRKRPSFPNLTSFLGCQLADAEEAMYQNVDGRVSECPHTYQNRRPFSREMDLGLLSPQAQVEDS
How it was run: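 Substrate 30 nM biotin-GG(EEEEY)10EE; ATP 10 μM (FLT3-ITD, FLT3-D835Y) or 100 μM (c-KIT). Detection: AlphaScreen PY20 kit, 10 μg/mL beads, RT 20 + 60 min. Readout 580 nm; IC50.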

[2] = system: MOLM-14 F691L (endogenous FLT3 ITD and transfected FLT3 F691L); assay: MOLM-14 F691L cell proliferation assay (CellTiter-Glo); format: cell-based; conditions: Homo sapiens, MOLM-14, 72 h; 3 d growth, GMean
How it was run: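 MOLM-14 cells (FLT3 ITD) carrying D835Y or F691L, 1×10^4 cells/well, eight 1:3 dilutions from 1 μM final, 0.2% DMSO, 3 days at 37 °C, 5% CO2. Viability by CellTiter-Glo luminescence (ATP content); IC50 from concentration-response.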

With Cc1ncc(NC(=O)Cc2ccc(-c3cnc(Nc4cn(C)cn4)nc3)cc2F)cc1C(F)(F)F [Compound P-0099, 2-[2-fluoro-4-[2-[(1-methylimidazol-4-yl)amino]pyrimidin-5-yl]phenyl]-N-[6-methyl-5-(trifluoromethyl)-3-pyridyl]acetamide] the pIC50 [1] was 5.00 to 10.00 and the pIC50 [2] was 5.00 to 10.00.
Cn1cc(Nc2ncc(-c3ccc(CC(=O)Nc4cnc(F)c(C(C)(F)F)c4)c(F)c3)cn2)cn1 [Compound P-0105, N-[5-(1,1-difluoroethyl)-6-fluoro-3-pyridyl]-2-[2-fluoro-4-[2-[(1-methylpyrazol-4-yl)amino]pyrimidin-5-yl]phenyl]acetamide] showed a pIC50 [1] of 5.00 to 10.00 and a pIC50 [2] of 5.00 to 10.00.
Work on COc1cncc(NC(=O)Cc2ccc(-c3cnc(Nc4cnn(C)c4)nc3)cc2)c1 [Compound P-0133, N-(5-methoxy-3-pyridyl)-2-[4-[2-[(1-methylpyrazol-4-yl)amino]pyrimidin-5-yl]phenyl]acetamide] yielded a pIC50 [1] of 5.00 to 10.00 and a pIC50 [2] of 5.00 to 10.00.
CCn1cc(Nc2ncc(-c3ccc(CC(=O)Nc4cnc(Cl)c(C(F)(F)F)c4)cc3)cn2)cn1 [Compound P-0165, N-[6-chloro-5-(trifluoromethyl)-3-pyridyl]-2-[4-[2-[(1-ethylpyrazol-4-yl)amino]pyrimidin-5-yl]phenyl]acetamide] gave a pIC50 [1] of 5.00 to 10.00 and a pIC50 [2] of 5.00 to 10.00.
In the case of Cn1cc(Nc2ncc(-c3ccc(CC(=O)Nc4cccc(C(C)(C)C#N)c4)cc3)cn2)cn1 [Compound P-0158, N-[3-(1-cyano-1-methyl-ethyl)phenyl]-2-[4-[2-[(1-methylpyrazol-4-yl)amino]pyrimidin-5-yl]phenyl]acetamide], the pIC50 [1] was 5.00 to 10.00 and the pIC50 [2] was 5.00 to 10.00.
For Cn1cc(Nc2ncc(-c3ccc(CC(=O)Nc4ccc(C(F)(F)F)nc4)cc3)cn2)cn1 [Compound P-0095, 2-[4-[2-[(1-methylpyrazol-4-yl)amino]pyrimidin-5-yl]phenyl]-N-[6-(trifluoromethyl)-3-pyridyl]acetamide], the pIC50 [1] was 5.00 to 10.00 and the pIC50 [2] was 5.00 to 10.00.
With Cn1cnc(Nc2ncc(-c3ccc(CC(=O)Nc4cnc(F)c(C(C)(F)F)c4)cc3)cn2)c1 [Compound P-0168, N-[5-(1,1-difluoroethyl)-6-fluoro-3-pyridyl]-2-[4-[2-[(1-methylimidazol-4-yl)amino]pyrimidin-5-yl]phenyl]acetamide] the pIC50 [1] was 5.00 to 10.00 and the pIC50 [2] was 5.00 to 10.00.
O=C(Cc1ccc(-c2cnc3[nH]c(-c4ccccc4)cc3c2)c(F)c1)Nc1cccc(C(F)(F)F)c1 [Compound P-0003, 2-[3-fluoro-4-(2-phenyl-1H-pyrrolo[2,3-b]pyridin-5-yl)phenyl]-N-[3-(trifluoromethyl)phenyl]acetamide] was tested, and the pIC50 [1] was 5.00 to 10.00 and the pIC50 [2] was 5.00 to 10.00.
COc1ncc(NC(=O)Cc2ccc(-c3cnc(Nc4cn(C)cn4)nc3)cc2)cc1C(F)(F)F [Compound P-0149, N-[6-methoxy-5-(trifluoromethyl)-3-pyridyl]-2-[4-[2-[(1-methylimidazol-4-yl)amino]pyrimidin-5-yl]phenyl]acetamide] was tested, and the pIC50 [1] was 5.00 to 10.00 and the pIC50 [2] was 5.00 to 10.00.
For N#Cc1cc(-c2cc3cc(-c4ccc(CC(=O)Nc5ccnc(C(F)(F)F)c5)nc4)cnc3[nH]2)ccn1 [Compound P-0182, 2-[5-[2-(2-cyano-4-pyridyl)-1H-pyrrolo[2,3-b]pyridin-5-yl]-2-pyridyl]-N-[2-(trifluoromethyl)-4-pyridyl]acetamide], the pIC50 [1] was 5.00 to 10.00 and the pIC50 [2] was 5.00 to 10.00.
Cn1cc(Nc2ncc(-c3ccc(CC(=O)NCc4cncc(C(F)(F)F)c4)cc3)cn2)cn1 [Compound P-0161, 2-[4-[2-[(1-methylpyrazol-4-yl)amino]pyrimidin-5-yl]phenyl]-N-[[5-(trifluoromethyl)-3-pyridyl]methyl]acetamide] showed a pIC50 [1] of 5.00 to 10.00 and a pIC50 [2] of 5.00 to 10.00.
Work on Cn1cc(Nc2ncc(-c3ccc(CC(=O)Nc4cnc(Cl)c(C(F)(F)F)c4)c(F)c3)cn2)cn1 [Compound P-0092, N-[6-chloro-5-(trifluoromethyl)-3-pyridyl]-2-[2-fluoro-4-[2-[(1-methylpyrazol-4-yl)amino]pyrimidin-5-yl]phenyl]acetamide] yielded a pIC50 [1] of 5.00 to 10.00 and a pIC50 [2] of 5.00 to 10.00.
Cn1cc(Nc2ncc(-c3ccc(CC(=O)Nc4ccnc(C(F)(F)F)n4)cc3)cn2)cn1 [Compound P-0137, 2-[4-[2-[(1-methylpyrazol-4-yl)amino]pyrimidin-5-yl]phenyl]-N-[2-(trifluoromethyl)pyrimidin-4-yl]acetamide] showed a pIC50 [1] of 5.00 to 10.00 and a pIC50 [2] of 5.00 to 10.00.
With Cn1cc(Nc2ncc(-c3ccc(CC(=O)Nc4ccnc(C5CC5)c4)cc3)cn2)cn1 [Compound P-0097, N-(2-cyclopropyl-4-pyridyl)-2-[4-[2-[(1-methylpyrazol-4-yl)amino]pyrimidin-5-yl]phenyl]acetamide] the pIC50 [1] was 5.00 to 10.00 and the pIC50 [2] was 5.00 to 10.00.
Cn1cc(Nc2ncc(-c3ccc(CC(=O)Nc4ccc(C(C)(C)C)nc4)cc3)cn2)cn1 [Compound P-0143, N-(6-tert-butyl-3-pyridyl)-2-[4-[2-[(1-methylpyrazol-4-yl)amino]pyrimidin-5-yl]phenyl]acetamide] was tested, and the pIC50 [1] was 5.00 to 10.00 and the pIC50 [2] was 5.00 to 10.00.
O=C(Cc1ccc(-c2cnc3[nH]c(-c4cnn(C(F)F)c4)cc3c2)c(F)c1)Nc1cncc(C(F)(F)F)c1 [Compound P-0197, 2-[4-[2-[1-(difluoromethyl)pyrazol-4-yl]-1H-pyrrolo[2,3-b]pyridin-5-yl]-3-fluoro-phenyl]-N-[5-(trifluoromethyl)-3-pyridyl]acetamide] gave a pIC50 [1] of 5.00 to 10.00 and a pIC50 [2] of 5.00 to 10.00.
Cn1cc(Nc2ncc(-c3ccc(CC(=O)Nc4ccc(C(F)(F)F)cn4)c(F)c3)cn2)cn1 [Compound P-0106, 2-[2-fluoro-4-[2-[(1-methylpyrazol-4-yl)amino]pyrimidin-5-yl]phenyl]-N-[5-(trifluoromethyl)-2-pyridyl]acetamide] was tested, and the pIC50 [1] was 5.00 to 10.00 and the pIC50 [2] was 5.00 to 10.00.
Molecule COc1ccc(-c2cc3cc(-c4ccc(CC(=O)Nc5cncc(C(F)(F)F)c5)cc4F)cnc3[nH]2)cn1 [Compound P-0196, 2-[3-fluoro-4-[2-(6-methoxy-3-pyridyl)-1H-pyrrolo[2,3-b]pyridin-5-yl]phenyl]-N-[5-(trifluoromethyl)-3-pyridyl]acetamide] has a pIC50 [1] of 5.00 to 10.00 and a pIC50 [2] of 5.00 to 10.00.
Molecule Cn1cc(Nc2ncc(-c3ccc(CC(=O)Nc4ccc(C(C)(C)C#N)nc4)cc3)cn2)cn1 [Compound P-0146, N-[6-(1-cyano-1-methyl-ethyl)-3-pyridyl]-2-[4-[2-[(1-methylpyrazol-4-yl)amino]pyrimidin-5-yl]phenyl]acetamide] has a pIC50 [1] of 5.00 to 10.00 and a pIC50 [2] of 5.00 to 10.00.
For Cn1cc(Nc2ncc(-c3ccc(CC(=O)Nc4cc(C(F)(F)F)ncn4)cc3)cn2)cn1 [Compound P-0135, 2-[4-[2-[(1-methylpyrazol-4-yl)amino]pyrimidin-5-yl]phenyl]-N-[6-(trifluoromethyl)pyrimidin-4-yl]acetamide], the pIC50 [1] was 5.00 to 10.00 and the pIC50 [2] was 5.00 to 10.00.
O=C(Cc1ccc(-c2cnc3[nH]c(-c4ccccc4)cc3c2)cn1)Nc1ccnc(C(F)(F)F)c1 [Compound P-0005, 2-[5-(2-phenyl-1H-pyrrolo[2,3-b]pyridin-5-yl)-2-pyridyl]-N-[2-(trifluoromethyl)-4-pyridyl]acetamide] was tested, and the pIC50 [1] was 5.00 to 10.00 and the pIC50 [2] was 5.00 to 10.00.
Work on Cn1cc(Nc2ncc(-c3ccc(CC(=O)Nc4cccc(OC(F)(F)F)c4)cc3)cn2)cn1 [Compound P-0157, 2-[4-[2-[(1-methylpyrazol-4-yl)amino]pyrimidin-5-yl]phenyl]-N-[3-(trifluoromethoxy)phenyl]acetamide] yielded a pIC50 [1] of 5.00 to 10.00 and a pIC50 [2] of 5.00 to 10.00.
Cn1cnc(Nc2ncc(-c3ccc(CC(=O)Nc4cc(C(C)(F)F)ccn4)cc3)cn2)c1 [Compound P-0169, N-[4-(1,1-difluoroethyl)-2-pyridyl]-2-[4-[2-[(1-methylimidazol-4-yl)amino]pyrimidin-5-yl]phenyl]acetamide] showed a pIC50 [1] of 5.00 to 10.00 and a pIC50 [2] of 5.00 to 10.00.
Cn1cc(Nc2ncc(-c3ccc(CC(=O)Nc4cc(C(F)(F)F)ccn4)cc3)cn2)cn1 [Compound P-0139, 2-[4-[2-[(1-methylpyrazol-4-yl)amino]pyrimidin-5-yl]phenyl]-N-[4-(trifluoromethyl)-2-pyridyl]acetamide] was tested, and the pIC50 [1] was 5.00 to 10.00 and the pIC50 [2] was 5.00 to 10.00.

— patent US10160747B2, “Compounds and methods for kinase modulation, and indications therefor” (Plexxikon Inc., priority 2016, dated 2018)
